Measurements from patent US7005447B2, “Food product comprising hydroxymatairesinol” (Hormos Nutraceutical Oy Ltd., priority 1999, dated 2006).
Where two headings read alike, the source gives them in different places. Each block holds one compound with its values, some of them ahead of it.

Legend:
aromatase = target: T1, aromatase (Homo sapiens, UniProt P11511); assay: Aromatase inhibiting capacity in JEG-3 cells (3H-17β-estradiol formation from 3H-androstenedione); assay type: cell-based; conditions: 4 h incubation, FIG. 1
T1 construct: 800 μl cell suspension (1 million cells); endogenous in cells; host or cells: JEG-3 human choriocarcinoma cells
T1 sequence (P11511 1-503): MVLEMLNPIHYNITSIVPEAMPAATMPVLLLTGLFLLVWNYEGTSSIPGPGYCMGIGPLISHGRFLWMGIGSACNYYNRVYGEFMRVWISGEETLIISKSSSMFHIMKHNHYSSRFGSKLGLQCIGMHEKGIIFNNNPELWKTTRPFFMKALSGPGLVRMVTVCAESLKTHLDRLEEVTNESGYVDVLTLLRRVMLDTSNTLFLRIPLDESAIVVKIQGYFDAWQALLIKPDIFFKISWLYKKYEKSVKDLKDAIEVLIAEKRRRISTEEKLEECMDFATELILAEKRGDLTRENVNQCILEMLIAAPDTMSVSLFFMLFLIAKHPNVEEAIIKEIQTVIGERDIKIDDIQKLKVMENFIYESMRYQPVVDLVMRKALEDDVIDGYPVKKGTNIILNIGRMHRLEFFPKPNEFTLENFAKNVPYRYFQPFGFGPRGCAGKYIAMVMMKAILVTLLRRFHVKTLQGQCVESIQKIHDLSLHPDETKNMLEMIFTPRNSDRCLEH
Experimental: The effects of HMR and structurally related lignans (enterolactone, enterodiol and 7-hydroxyenterolactone) were studied on formation of ^3H-17β-estradiol from ^3H-andostenedione in JEG-3 cells, human choriocarcinoma cell line. […] Cells were maintained in DMEM containing 10% fetal calf serum (FCS). The incubation mixture contained 50 μl ^3H-androst-4-ene, 3,17-dione (0.5 nM), 50 μl unlabelled androstenedione (0.5 nM), 100 μl test compounds (10 mM) and 800 μl cell suspension (1 million cells). After the incubation for 4 h, unlabelled carriers (androstenedione, testosterone, 17β-estradiol and estrone) were added. The steroids were extracted twice with 3.0 ml dichloromethane. […] The column system consisted of a guard column followed by a C18 150×3.9 mm ID analytical column (Technopak 10 C18 HPLC Technology; Wellington House, Cheshire, UK). The mobile phase was acetonitrile/water (35/65) and the flow rate was 1.2 ml/min. For in-line detection of the radioactive metabolites, the eluent of the HPCL column was continuously mixed with liquid scintillant and then monitored with in-line radioactivity detector.

[1] = tested on: tert-butylhydroperoxide-induced lipid peroxidation (t-BuOOH-LP) in rat liver microsomes; assay: Inhibition of tert-butylhydroperoxide-induced lipid peroxidation (t-BuOOH-LP), chemiluminescence; assay type: biochemical
Experimental: Inhibition of lipid peroxidation was evaluated on the basis of their potency to inhibit tert-butylhydroperoxide-induced lipid peroxidation (t-BuOOH-LP) in rat liver microsomes in vitro (Ahotupa et al. 1997). The test for the t-BuOOH-LP was carried out as follows: The buffer (50 mM sodium carbonate, pH 10.2, with 0.1 mM EDTA) was pipetted in a volume of 0.8 ml in the luminometer cuvette. Twenty microliters of diluted liver microsomes, final concentration 1.5 mg protein/ml, was added, followed by […] of luminol (0.5 mg/ml) and test chemicals. The test compounds were added to incubation mixtures in a small volume diluted in ethanol or dimethylsulphoxide (2% of incubation volume), and the lipid peroxidation potency was compared to that of the vehicle (ethanol or dimethyl sulphoxide). The reaction was initiated by 0.05 ml of 0.9 mM t-BuOOH at 33° C. Chemiluminescence was measured for about 45 min at 1 min cycles, and the area under curve (integral) was calculated. Chemiluminescence measurements were carried out using a Bio-Orbit 1251 Luminometer (Bio-Orbit, Turku, Finland) connected to a personal computer using dedicated software for the assays.

[2] = Superoxide anion scavenging (xanthine-xanthine oxidase system, chemiluminescence); assay type: biochemical; conditions: read-out: Superoxide anion scavenging, IC-50
Experimental: Superoxide anion scavenging method was based on the superoxide anion produced in controlled conditions by xanthine-xanthine oxidase system and detection of the generated reactive oxygen species by luminometer (Ahotupa et al., 1997). The ability of test compounds to decrease the chemiluminescence was evaluated. IC-50 concentration (concentration which prevented the chemiluminescence by 50%) was calculated.

[3] = tested on: uterine growth of immature rats; assay: Immature rat uterotropic test; assay type: in vivo; conditions: methodological control for non-estrogen-stimulated uterus
Experimental: The estrogenicity HMR was evaluated by the uterotropic assay in immature rats which was performed as described earlier (Jordan et al. 1977), with the exception of treatment time which was 7 days instead of 3 days in the reference study. The treatment time was longer because of the expected weak estrogenicity of the test compound. The treatment of immature rats with an aromatase inhibitor (MPV-2213 ad), which prevents biosynthesis of estradiol, was used as a methodological control for non-estrogen-stimulated uterus.

[4] = tested on: low density lipoprotein (LDL) oxidation; assay: Inhibition of LDL oxidation (CuCl2-induced, absorbance at 234 nm); assay type: biochemical; conditions: CuCl2, 3 hrs at +37° C.; read-out: Inhibition of LDL oxidation, IC-50
Experimental: Inhibition of LDL oxidation was estimated as described by Ahotupa et al, 1996. Shortly: LDL was isolated by precipitation with buffered heparin. After resuspendation in phosphate buffer, 20 mM CuCl2 was added and the mixture was incubated for 3 hrs at +37° C. After this, LDL lipids were extracted with chloroform-methanol, dried under nitrogen, redissolved in cyclohexane and analyzed spectrophotometrically at 234 nm. The intensity of absorbance is indicative of LDL oxidation. To test the ability of different compounds to prevent LDL oxidation, the compounds were added to the incubation mixture prior addition of CuCl2. Possible interference of test compounds with the assay procedure was excluded by measuring the absorption at 234 nm before and after the incubation period.

MCF-7 cells = conditions: Mousavi and Adlercreutz 1992; cited from earlier work
mouse uterine weight = conditions: Setchell et al. 1981; cited from earlier work
[5] = tested on: antiestrogen-sensitive DMBA-induced breast cancer; conditions: supplementation of a high-fat diet, rat; Serraino and Thompson, Thompson et al.; cited from earlier work
[6] = tested on: chemically induced aberrant crypts in rat colon; conditions: diet supplementation; Serraino and Thompson 1992, Jenab and Thompson 1996; cited from earlier work
uterine weight = conditions: feeding during pregnancy and lactation to rats; effect not evident at later stages; Tou et al. 1998; cited from earlier work
[7] = Table 3 comparison with known antioxidants, read-out: Inhibition of lipid peroxidation, IC-50
[8] = lipid peroxidation inhibition test, rat liver microsomes, Table 2, read-out: Antioxidative capacity (t-BuOOH-LP) IC50

IC50 [1, 7]: 0.02 µM | IC50 [4]: 2.7 µM | IC50 [2]: 0.025 mM
Compound: Cc1c(C)c2c(c(C)c1O)CCC(C)(C(=O)O)O2 (stereo not drawn) [TROLOX]

IC50 [1, 8]: 0.9 µM
Compound: O=c1c(O)c(-c2ccc(O)cc2)oc2cc(O)cc(O)c12 [kaempferol, 3,4′,5,7-tetrahydroxy-flavone]

IC50 [1, 8]: 0.4 µM
Compound: O=c1c(O)c(-c2ccc(O)c(O)c2)oc2cc(O)cc(O)c12 [quercetin, 3,3′,4′,5,7-pentahydroxy-flavone]

The remaining lines, values behind:

Compound: O=C1OC[C@H](Cc2cccc(O)c2)[C@H]1[C@@H](O)c1cccc(O)c1 [7-hydroxyenterolactone]
Inhibition of aromatization (3H-17β-estradiol formation from 3H-androstenedione) (aromatase): no inhibitory effects

Compound: COc1ccc(O)c(C(C)(C)C)c1 [BHA, Butylated hydroxyanisol]
IC50 [1, 7]: 1.1 µM | IC50 [2]: 0.015 mM

Compound: Cc1cc(C(C)(C)C)c(O)c(C(C)(C)C)c1 [BHT, Butylated hydroxytoluene]
IC50 [1, 7]: 15.3 µM | IC50 ([2]; value in mM): > 1 mM

Compound: N#Cc1ccc(C(C(O)Cc2ccc(F)cc2)n2cncn2)cc1 (stereo not drawn) [MPV-2213 ad, reference compound]
Effect on increase of uterine weight [3]: prevented the increase of uterine weight

Compound: OCC(Cc1cccc(O)c1)C(CO)Cc1cccc(O)c1 (stereo not drawn) [enterodiol, 2,3-bis-(3′-hydroxybenzyl)-butane-1,4-diol]
IC50 [1, 8]: 12.7 µM | Inhibition of aromatization (3H-17β-estradiol formation from 3H-androstenedione) (aromatase): noninhibitory

Compound: O=C1OCC(Cc2cccc(O)c2)C1Cc1cccc(O)c1 (stereo not drawn) [enterolactone, 2,3-bis-(3′-hydroxybenzyl)-butyrolactone]
IC50 [1, 8]: 15.9 µM | Inhibition of aromatization (3H-17β-estradiol formation from 3H-androstenedione) (aromatase): dose-dependent inhibition | Estrogenic potency in MCF-7 cells (MCF-7 cells): weak estrogenic potency | Estrogenic response in mouse uterine weight (mouse uterine weight): no estrogenic response

Compound: COc1ccc(-c2oc3cc(O)cc(O)c3c(=O)c2O)cc1 [kaempferide, 3,5,7-trihydroxy-4′-methoxy-flavone]
IC50 [1, 8]: 0.5 µM

Compound: secoisolariciresinol-diglycoside [SDG]
Development of DMBA-induced breast cancer [5]: prevented the development | Formation of chemically induced aberrant crypts in rat colon [6]: inhibited the formation | Uterine weight (uterine weight): increased the uterine weight at weaning
